According to article PMC7367283, “A PIP2 substitute mediates voltage sensor-pore coupling in KCNQ activation” (Communications Biology, 2020):

Molecular target: hERG (Homo sapiens, UniProt Q12809)
Assay: Two-electrode voltage clamp of hERG in Xenopus oocytes
Type: cell-based
Settings: 10 µM CP1
Source text: Since CP1 has a similar effect to PIP2 in mediating VSD-pore coupling in KCNQ channels, we tested if CP1 has effects on other ion channels that are also sensitive to PIP2 or are voltage activated and share general structural features of the VSD and the pore with KCNQ. […] On the other hand, NaV1.5 and KV4.2 are voltage-gated ion channels.
Fig. 6 Effects of CP1 on other ion channels expressed in Xenopus oocytes. a Currents of Kir1.1, CaV1.2, NaV1.5, hERG, and KV4.2 before and after application of 10 µM CP1, respectively. The voltages for holding, test, and returning pulses were Kir1.1, 0 mV, −100 to +60 mV, 0; CaV1.2, −100 mV, −100 to +60, −100 mV; NaV1.5, −100, −120 to +40 mV, −120 mV; […]; KV4.2, −80 mV, −100 mV to +80 mV, −40 mV; HCN4, −30 mV, −30 to −140 mV, −120 mV. b Current–voltage relations of Kir1.1 channel in the absence or presence of 10 µM CP1 (n = 7). c–g G–V relations of indicated channels with and without 10 µM CP1. The ΔV1/2 of G–V relations (mV) are CaV1.2, 3.38 ± 0.71 mV (c); NaV1.5, −2.26 ± 0.95 mV (d); hERG, 6.85 ± 1.81 mV (e); KV 4.2, −2.26 ± 2.88 mV (f); HCN4, 17.13 ± 1.59 mV (g).
Complementary DNA (cDNA) encoding human KCNQ1 (UniProtKB/Swiss‐Prot under accession no. P51787), KCNQ2 (O43526), KCNQ3 (O43525), KCNE1 (P15382), Kir1.1 (P48048), hERG (Q12809), KV4.2 (Q63881), NaV1.5 (Q14524), NaV β1 (Q07699), CaV1.2 (Q13936), CaV β1a (Q02641), CaV α2/δ1 (P54289), and HCN4 (Q9Y3Q4) were subcloned into oocyte expression vectors, respectively. Site-directed mutations of the KCNQ1 channel were all produced by overlap extension polymerase chain reaction (PCR) with high-fidelity Pfu polymerase (Stratagene, CA). The presence of the desired mutation was verified by sequencing the PCR-amplified regions. All the primer sequences used in this study are available in Supplementary Table 1. The complementary RNA (cRNA) of all these channels and mutations was transcribed in vitro with the T3, T7, or SP6 polymerase mMessage mMachine kit (Invitrogen, Thermo Fisher Scientific, MO).
The whole-oocyte ionic currents were recorded with a GeneClamp 500B amplifier (Axon Instruments, CA) or iTEV90 amplifier (HEKA, Germany) and then sampled at 1 kHz and low-pass-filtered at 2 kHz. The Patchmaster software (HEKA, Germany) was used to acquire data. The Kir1.1 current was recorded with a high K^+ bath solution containing (in mM) 96 KCl, 4 NaCl, 1 CaCl2, 2 MgCl2, and 10 HEPES, pH 7.3–7.4. The HCN4 current was recorded in ND66 solution containing (in mM) 66 NaCl, 32 KCl, 1.8 CaCl2, 1 MgCl2, and 5 HEPES, pH 7.6. All the other potassium channels were recorded in ND96 solution. The currents of CaV1.2 channel were recorded in 40 mM Ba^2+ bath solution containing (in mM) 40 Ba(OH)2, 50 TEA-OH, 2 KOH, and 5 HEPES, adjusted to pH 7.4 with methanesulfonic acid. CP1 (DISODIUM 5-BROMO-2-[9-CHLORO-3-(SULFONATOOXY) NAPHTHO [1,2-B] THIEN-2-YL]-1H-INDOL-3-YL SULFATE, Sigma-Aldrich, MO) and Chromanol 293B (Sigma-Aldrich, MO) were dissolved in bath solutions. All the chemicals were purchased from Sigma-Aldrich. To measure the I–V relations of the Kir1.1 channel, the test voltage was set from −100 to +60 mV for 1 s with 20-mV increments. The test pulses were stepped from a holding potential of 0 mV and then stepped back to 0 mV. The HCN4 currents were recorded by a test pulse between −30 and −140 mV in 10-mV step from a holding potential of −30 mV. For all the other potassium channels and CaV1.2 channel, the holding potential was −80 or −100 mV, and the test pulse was applied with 10-mV increment, which was followed with a repolarization pulse at −40 mV before returning to the holding potential. The durations of test and the repolarization pulse vary for different channels to allow the activation and deactivation of the channel to reach their steady states.

Chain of hERG (Q12809 whole entry): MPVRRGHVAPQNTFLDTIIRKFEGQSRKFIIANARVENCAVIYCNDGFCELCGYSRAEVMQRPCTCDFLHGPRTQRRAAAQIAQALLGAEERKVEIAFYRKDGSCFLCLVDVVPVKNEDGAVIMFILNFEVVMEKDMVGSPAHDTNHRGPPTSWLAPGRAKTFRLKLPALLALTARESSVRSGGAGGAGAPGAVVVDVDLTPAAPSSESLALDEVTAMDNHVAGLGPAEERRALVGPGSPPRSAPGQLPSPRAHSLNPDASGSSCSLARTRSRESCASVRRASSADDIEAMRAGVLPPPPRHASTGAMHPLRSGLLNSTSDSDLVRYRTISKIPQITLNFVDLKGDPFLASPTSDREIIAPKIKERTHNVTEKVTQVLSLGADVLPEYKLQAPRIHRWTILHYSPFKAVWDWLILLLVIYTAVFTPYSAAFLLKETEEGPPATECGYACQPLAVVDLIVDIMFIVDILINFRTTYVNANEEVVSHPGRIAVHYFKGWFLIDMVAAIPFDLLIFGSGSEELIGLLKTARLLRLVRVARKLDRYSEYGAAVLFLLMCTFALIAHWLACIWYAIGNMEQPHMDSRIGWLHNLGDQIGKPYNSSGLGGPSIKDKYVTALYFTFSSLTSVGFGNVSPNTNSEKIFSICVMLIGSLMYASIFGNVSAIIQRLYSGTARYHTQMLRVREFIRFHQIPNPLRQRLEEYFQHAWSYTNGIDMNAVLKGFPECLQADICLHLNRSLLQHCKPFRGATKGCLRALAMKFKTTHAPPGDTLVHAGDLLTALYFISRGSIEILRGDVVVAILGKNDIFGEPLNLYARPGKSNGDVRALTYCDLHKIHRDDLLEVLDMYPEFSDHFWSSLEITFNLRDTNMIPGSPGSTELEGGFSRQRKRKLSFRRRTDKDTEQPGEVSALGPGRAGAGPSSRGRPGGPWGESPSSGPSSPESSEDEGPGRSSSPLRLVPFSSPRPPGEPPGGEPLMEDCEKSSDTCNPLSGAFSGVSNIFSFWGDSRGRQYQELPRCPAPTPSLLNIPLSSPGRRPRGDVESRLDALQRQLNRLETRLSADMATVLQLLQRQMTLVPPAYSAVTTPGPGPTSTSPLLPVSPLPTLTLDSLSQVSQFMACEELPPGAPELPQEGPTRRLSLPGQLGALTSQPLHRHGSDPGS

O=S(=O)([O-])Oc1c(-c2sc3c(ccc4cccc(Cl)c43)c2OS(=O)(=O)[O-])[nH]c2ccc(Br)cc12.[Na+].[Na+] [CP1, DISODIUM 5-BROMO-2-[9-CHLORO-3-(SULFONATOOXY) NAPHTHO [1,2-B] THIEN-2-YL]-1H-INDOL-3-YL SULFATE]
ΔV1/2 of G–V relations: 6.85 ± 1.81 mV | G/Gmax Mean (Fig. 6e) (voltage 0 mV): 0.8601 | G/Gmax Mean (Fig. 6e) (voltage 10 mV): 0.9576 | G/Gmax Mean (Fig. 6e) (voltage 20 mV): 1.0000 | G/Gmax Mean (Fig. 6e) (voltage 30 mV): 0.9916 | G/Gmax Mean (Fig. 6e) (voltage 40 mV): 0.9932 | G/Gmax Mean (Fig. 6e) (voltage 50 mV): 0.9886 | G/Gmax Mean (Fig. 6e) (voltage 60 mV): 0.9837 | G/Gmax Mean (Fig. 6e) (voltage -10 mV): 0.6448 | G/Gmax Mean (Fig. 6e) (voltage -20 mV): 0.3564 | G/Gmax Mean (Fig. 6e) (voltage -30 mV): 0.1368 | G/Gmax Mean (Fig. 6e) (voltage -40 mV): 0.0404 | G/Gmax Mean (Fig. 6e) (voltage -50 mV): 0.0144 | G/Gmax Mean (Fig. 6e) (voltage -60 mV): 0.0098 | G/Gmax Mean (Fig. 6e) (voltage -70 mV): 0.0091 | G/Gmax Mean (Fig. 6e) (voltage -80 mV): 0.0089 | G/Gmax Mean (Fig. 6e) (voltage -90 mV): 0.0084 | G/Gmax Mean (Fig. 6e) (voltage -100 mV): 0.0080 | G/Gmax Mean (Fig. 6e) (voltage -110 mV): 0.0069 | G/Gmax Mean (Fig. 6e) (voltage -120 mV): 0.0065
